# Measured values reported in ChEMBL document CHEMBL1201862, “PubChem BioAssay data set” (2004).
# Activity calls are given as the source filed them.
# Tests used:
# [1] = biological target: T1, Short transient receptor potential channel 4 (Mus musculus, UniProt Q9QUQ5); test: calcium entry via TRPC4 opening agents – cell-based, HEK293 TRPC4/mu-opioid, Fluo-4 calcium, dose response (AID 434937); format: functional
# T1 sequence (Q9QUQ5 whole entry): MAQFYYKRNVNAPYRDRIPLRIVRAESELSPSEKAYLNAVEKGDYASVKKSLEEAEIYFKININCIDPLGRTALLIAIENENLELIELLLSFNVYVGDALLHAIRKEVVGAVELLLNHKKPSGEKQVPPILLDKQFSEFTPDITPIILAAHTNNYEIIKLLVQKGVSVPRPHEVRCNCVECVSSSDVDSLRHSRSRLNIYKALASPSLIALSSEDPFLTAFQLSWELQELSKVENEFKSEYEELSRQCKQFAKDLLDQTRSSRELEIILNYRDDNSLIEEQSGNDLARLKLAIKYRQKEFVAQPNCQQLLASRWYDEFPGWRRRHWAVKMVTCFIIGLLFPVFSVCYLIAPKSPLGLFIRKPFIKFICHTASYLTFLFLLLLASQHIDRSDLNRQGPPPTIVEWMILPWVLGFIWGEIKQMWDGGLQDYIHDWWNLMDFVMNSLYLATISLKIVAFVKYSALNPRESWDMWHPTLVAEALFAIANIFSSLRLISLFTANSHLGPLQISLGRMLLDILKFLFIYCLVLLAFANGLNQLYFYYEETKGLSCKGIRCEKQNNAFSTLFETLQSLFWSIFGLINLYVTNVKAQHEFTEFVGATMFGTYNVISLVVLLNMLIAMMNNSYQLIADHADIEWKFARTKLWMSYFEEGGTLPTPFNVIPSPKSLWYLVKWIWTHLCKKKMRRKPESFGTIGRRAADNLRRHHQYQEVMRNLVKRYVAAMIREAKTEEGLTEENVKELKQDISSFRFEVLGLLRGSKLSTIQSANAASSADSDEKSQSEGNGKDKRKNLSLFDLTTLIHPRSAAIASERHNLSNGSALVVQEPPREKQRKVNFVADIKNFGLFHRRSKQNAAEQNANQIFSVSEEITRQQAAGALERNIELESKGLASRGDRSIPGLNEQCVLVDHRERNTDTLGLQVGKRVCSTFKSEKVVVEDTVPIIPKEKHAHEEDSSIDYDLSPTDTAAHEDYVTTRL
# [2] = test system: HEK293; test: inhibition of NOD1-driven NF-kB reporter – cell-based, luminescence, uHTS, primary screen (AID 1578); format: functional; conditions: Homo sapiens
# [3] = test system: HEK293; test: cells; format: functional, cell-based; conditions: Homo sapiens
# [4] = test system: HEK293; test: cells; format: functional, cell-based; conditions: Homo sapiens; remark: listed apart in the source
# [5] = test system: HEK293; test: NOD2 signaling inhibitors in MDP-stimulated cells, cell-based, uHTS, luminescence (AID 2001); format: functional; conditions: Homo sapiens
# [6] = reduction of Shn3 3'UTR-driven luciferase in osteoblasts – cell-based, Clone20 osteoblasts, firefly luciferase, cherry-picked, dose response (AID 624132); format: functional;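 also: firefly luciferase luminescence from reporter carrying the Shn3 3'UTR in osteoblasts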
# [7] = loss of viability in HepG2 cells – cell-based, CellTiter-Glo, cherry-picked, cytotoxicity control for Shn3 inhibitor project, dose response (AID 624134); format: functional
# [8] = blockers of HIV-1 envelope-mediated cell-cell fusion – cherry-pick, dose response (AID 652057); format: functional, cell-based
# [9] = HIV-1 AD8 envelope cell-cell fusion blockers – cherry-pick, dose response (AID 652062); format: functional, cell-based;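 also: luciferase signal from cell-cell fusion driven by HIV-1 clade B AD8 Env; potency is for inhibitors of fusion seen as a drop in luminescence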
# [10] = biological target: Glucose-6-phosphate 1-dehydrogenase (Homo sapiens, UniProt P11413); test: inhibition of Homo sapiens G6PD, dose series – biochemical, fluorescence, selectivity assay for P. falciparum G6PD inhibitor project, dose response (AID 504792); format: functional
# [11] = biological target: Protein-tyrosine kinase 2-beta (Homo sapiens, UniProt Q14289);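 also: potency of inhibitors of PYK2 kinase phosphorylation of poly-GT substrate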
# [12] = test system: H9c2; test: cells; format: functional, cell-based; conditions: Rattus norvegicus, H9c2, Myocardium;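 also: confirmatory concentration-response retest of ultra-high-throughput screening hits for modulation of myocardial damage; cell death induced by hydrogen peroxide oxidative stress; compound pretreatment for 60 min then peroxide exposure for 2 h; potency is for protecting the cells against peroxide damage rather than for killing them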
# [13] = biological target: T2, Replicative DNA helicase DnaB (Mycobacterium tuberculosis, UniProt P9WMR3); test: DnaB intein splicing inhibitors, dose response, biochemical, cell-free fluorescence (AID 449749); format: functional
# T2 sequence (P9WMR3 whole entry): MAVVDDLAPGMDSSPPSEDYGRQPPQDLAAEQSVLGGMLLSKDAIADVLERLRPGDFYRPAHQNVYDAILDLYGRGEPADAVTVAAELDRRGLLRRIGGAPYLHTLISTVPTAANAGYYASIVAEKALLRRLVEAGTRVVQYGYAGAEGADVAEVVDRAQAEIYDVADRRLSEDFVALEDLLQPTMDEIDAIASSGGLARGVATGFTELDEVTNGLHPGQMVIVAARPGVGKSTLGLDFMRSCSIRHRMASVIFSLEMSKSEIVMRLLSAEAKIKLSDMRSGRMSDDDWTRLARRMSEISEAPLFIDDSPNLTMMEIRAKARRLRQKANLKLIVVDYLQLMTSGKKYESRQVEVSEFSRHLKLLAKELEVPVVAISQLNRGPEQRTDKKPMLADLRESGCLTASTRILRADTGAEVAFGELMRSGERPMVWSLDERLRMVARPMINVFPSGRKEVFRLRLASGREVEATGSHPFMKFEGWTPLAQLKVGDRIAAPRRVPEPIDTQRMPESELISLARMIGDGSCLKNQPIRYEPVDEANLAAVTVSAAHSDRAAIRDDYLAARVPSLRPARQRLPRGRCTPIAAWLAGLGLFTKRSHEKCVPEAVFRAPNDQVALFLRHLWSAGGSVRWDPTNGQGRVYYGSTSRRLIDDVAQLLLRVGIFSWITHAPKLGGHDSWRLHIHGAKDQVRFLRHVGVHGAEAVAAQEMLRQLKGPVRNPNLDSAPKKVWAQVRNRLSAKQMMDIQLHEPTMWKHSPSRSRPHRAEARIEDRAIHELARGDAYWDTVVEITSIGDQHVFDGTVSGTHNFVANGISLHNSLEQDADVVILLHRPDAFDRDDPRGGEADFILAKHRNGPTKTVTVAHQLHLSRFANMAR
# [14] = biological target: T3, Protein RecA (Mycobacterium tuberculosis, UniProt P9WHJ3); test: Fluorescence Cell-Free Homogeneous Dose Retest to Identify Inhibitors of RecA-Intein Splicing Activity. [Related pubchem assays (depositor defined):AID2097, AID2223, AID489010, AID492950]; format: functional
# T3 sequence (P9WHJ3 whole entry): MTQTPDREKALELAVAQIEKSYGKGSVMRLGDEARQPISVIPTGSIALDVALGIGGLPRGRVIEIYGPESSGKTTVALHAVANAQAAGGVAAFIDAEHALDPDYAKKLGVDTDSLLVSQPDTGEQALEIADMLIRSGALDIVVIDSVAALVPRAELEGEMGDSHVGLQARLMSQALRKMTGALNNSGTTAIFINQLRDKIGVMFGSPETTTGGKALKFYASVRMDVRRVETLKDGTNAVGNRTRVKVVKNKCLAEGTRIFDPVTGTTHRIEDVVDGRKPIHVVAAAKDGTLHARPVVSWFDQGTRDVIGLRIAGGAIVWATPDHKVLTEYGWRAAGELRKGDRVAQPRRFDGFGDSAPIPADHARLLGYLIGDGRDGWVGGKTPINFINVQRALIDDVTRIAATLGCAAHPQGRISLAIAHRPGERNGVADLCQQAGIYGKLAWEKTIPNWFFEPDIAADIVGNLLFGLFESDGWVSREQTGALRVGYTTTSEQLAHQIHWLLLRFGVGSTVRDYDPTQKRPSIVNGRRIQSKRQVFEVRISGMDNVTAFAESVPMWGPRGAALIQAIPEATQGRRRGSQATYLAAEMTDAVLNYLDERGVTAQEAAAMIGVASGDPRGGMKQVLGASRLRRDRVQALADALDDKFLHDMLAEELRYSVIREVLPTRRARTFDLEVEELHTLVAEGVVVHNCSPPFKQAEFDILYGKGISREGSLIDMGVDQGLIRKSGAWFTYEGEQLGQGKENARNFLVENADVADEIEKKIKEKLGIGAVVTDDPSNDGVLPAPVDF
# [15] = viability loss in THP-1 monocytes – THP-1 cells, cytotoxicity control for Vif-APOBEC3G degradation inhibitor project, dose response (AID 1117359); format: functional; conditions: THP-1
# [16] = biological target: T4, High affinity choline transporter 1 (Homo sapiens, UniProt Q9GZV3); test: human choline transporter blockers, potency – cell-based, 5-point CRC, membrane potential dye, dose response (AID 504840); format: functional
# T4 sequence (Q9GZV3 whole entry): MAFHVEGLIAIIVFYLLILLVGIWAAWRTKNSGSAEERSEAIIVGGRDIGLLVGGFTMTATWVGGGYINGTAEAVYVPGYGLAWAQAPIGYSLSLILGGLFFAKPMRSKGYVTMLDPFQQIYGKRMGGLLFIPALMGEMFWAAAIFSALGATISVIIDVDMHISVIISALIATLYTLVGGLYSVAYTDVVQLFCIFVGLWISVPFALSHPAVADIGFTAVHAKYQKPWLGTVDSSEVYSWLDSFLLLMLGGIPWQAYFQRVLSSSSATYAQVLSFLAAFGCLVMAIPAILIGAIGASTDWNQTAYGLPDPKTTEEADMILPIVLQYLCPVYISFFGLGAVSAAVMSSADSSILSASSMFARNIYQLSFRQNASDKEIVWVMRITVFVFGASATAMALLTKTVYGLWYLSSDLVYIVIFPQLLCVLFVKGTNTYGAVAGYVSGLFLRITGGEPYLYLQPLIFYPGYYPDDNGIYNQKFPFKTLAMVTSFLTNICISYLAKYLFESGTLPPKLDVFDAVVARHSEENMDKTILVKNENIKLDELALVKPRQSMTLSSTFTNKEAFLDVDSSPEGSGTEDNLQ
# [17] = biological target: Cytochrome P450 2C9 (Homo sapiens, UniProt P11712)
# [18] = biological target: Large T antigen (Simian virus 40, UniProt P03070); format: functional, Betapolyomavirus macacae;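 also: Confirmatory-stage PubChem screen for compounds that inhibit SV40 T antigen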
# [19] = blockers of bursicon-stimulated LGR2 cAMP reporter – cell-based, HEK293, CRE-luciferase reporter, cherry pick, set 2, dose response (AID 743343); format: functional;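 also: transfected cells were stimulated with diluted bursicon conditioned medium after compound addition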
# [20] = blockade of melanocortin 4 receptor signaling – cell-based, plate reader, cherry pick, counter-screen for LGR2 antagonist project, dose response (AID 743444); format: functional;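 also: transfected HEK 293 cells stimulated with alpha-MSH peptide; potency of inhibitors of the alpha-MSH evoked signal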
# [21] = luciferase reporter signal suppression in cells – H4 neuroglioma cells, luminescence, dose response (AID 1990); format: functional, cell-based
# [22] = Luminescence Cell-Based Dose Response HTS to Identify Inhibitors of 5'UTR Stem-Loop Driven Prion Protein mRNA Translation in H4 Neuroglioblastoma Cells. [Related pubchem assays: 1827 (Project Summary), 1813 (Primary HTS)]; format: functional
# [23] = alpha-synuclein stem-loop luciferase translation blockers – H4 neuroglioma cells, luminescence, confirmation (AID 1988); format: functional, cell-based
# Sequence of Glucose-6-phosphate 1-dehydrogenase (P11413 whole entry): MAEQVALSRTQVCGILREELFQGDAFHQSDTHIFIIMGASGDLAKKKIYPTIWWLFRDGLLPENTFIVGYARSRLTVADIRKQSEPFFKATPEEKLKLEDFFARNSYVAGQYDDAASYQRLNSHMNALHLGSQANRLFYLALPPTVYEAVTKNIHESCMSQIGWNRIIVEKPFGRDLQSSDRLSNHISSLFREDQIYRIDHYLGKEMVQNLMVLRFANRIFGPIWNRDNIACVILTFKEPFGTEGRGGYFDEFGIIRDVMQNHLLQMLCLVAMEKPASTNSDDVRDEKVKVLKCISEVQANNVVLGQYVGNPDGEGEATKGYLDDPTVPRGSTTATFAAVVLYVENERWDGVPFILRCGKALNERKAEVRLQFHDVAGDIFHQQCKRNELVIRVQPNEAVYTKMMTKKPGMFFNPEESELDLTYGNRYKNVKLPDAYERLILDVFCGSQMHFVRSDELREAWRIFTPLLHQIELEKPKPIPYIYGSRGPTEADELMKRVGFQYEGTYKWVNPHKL
# Sequence of Protein-tyrosine kinase 2-beta (Q14289 whole entry): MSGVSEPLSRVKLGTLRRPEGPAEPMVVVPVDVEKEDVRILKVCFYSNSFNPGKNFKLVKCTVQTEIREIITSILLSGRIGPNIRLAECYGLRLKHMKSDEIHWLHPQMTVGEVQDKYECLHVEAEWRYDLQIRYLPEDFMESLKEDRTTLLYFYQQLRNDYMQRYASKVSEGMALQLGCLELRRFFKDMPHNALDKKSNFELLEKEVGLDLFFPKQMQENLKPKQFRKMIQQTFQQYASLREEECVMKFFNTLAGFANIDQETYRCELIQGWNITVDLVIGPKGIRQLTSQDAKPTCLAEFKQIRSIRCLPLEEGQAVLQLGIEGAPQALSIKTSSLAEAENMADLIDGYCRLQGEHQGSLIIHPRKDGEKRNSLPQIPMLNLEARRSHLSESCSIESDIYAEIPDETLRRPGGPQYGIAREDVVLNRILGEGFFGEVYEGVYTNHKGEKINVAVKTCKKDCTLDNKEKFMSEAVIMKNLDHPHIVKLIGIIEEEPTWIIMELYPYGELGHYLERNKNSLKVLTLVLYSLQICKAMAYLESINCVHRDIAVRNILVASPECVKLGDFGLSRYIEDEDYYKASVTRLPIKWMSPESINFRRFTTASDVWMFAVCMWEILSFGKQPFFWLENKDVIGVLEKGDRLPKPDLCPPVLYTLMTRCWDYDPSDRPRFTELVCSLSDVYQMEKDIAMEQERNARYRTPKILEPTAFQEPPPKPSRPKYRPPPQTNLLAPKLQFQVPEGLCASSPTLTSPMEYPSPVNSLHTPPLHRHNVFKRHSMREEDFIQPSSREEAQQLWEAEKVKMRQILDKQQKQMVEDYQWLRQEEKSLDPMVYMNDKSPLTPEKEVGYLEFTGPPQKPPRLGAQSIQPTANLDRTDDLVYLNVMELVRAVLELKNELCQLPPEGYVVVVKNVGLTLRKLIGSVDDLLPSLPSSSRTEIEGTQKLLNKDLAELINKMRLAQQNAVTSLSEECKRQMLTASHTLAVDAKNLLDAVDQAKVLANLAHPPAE
# Sequence of Cytochrome P450 2C9 (P11712 whole entry): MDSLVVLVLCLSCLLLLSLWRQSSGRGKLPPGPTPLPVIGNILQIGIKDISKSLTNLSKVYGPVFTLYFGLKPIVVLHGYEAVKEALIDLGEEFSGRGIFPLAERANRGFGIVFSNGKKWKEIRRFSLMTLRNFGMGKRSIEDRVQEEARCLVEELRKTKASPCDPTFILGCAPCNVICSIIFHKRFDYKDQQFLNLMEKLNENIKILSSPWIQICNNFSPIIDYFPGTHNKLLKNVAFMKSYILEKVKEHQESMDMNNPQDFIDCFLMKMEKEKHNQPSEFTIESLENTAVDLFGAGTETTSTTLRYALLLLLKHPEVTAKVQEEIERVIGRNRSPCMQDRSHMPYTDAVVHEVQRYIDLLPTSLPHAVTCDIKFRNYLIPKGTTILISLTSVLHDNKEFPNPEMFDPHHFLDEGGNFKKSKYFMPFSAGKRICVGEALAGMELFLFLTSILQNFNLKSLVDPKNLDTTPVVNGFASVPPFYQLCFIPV
# Sequence of Large T antigen (P03070 whole entry): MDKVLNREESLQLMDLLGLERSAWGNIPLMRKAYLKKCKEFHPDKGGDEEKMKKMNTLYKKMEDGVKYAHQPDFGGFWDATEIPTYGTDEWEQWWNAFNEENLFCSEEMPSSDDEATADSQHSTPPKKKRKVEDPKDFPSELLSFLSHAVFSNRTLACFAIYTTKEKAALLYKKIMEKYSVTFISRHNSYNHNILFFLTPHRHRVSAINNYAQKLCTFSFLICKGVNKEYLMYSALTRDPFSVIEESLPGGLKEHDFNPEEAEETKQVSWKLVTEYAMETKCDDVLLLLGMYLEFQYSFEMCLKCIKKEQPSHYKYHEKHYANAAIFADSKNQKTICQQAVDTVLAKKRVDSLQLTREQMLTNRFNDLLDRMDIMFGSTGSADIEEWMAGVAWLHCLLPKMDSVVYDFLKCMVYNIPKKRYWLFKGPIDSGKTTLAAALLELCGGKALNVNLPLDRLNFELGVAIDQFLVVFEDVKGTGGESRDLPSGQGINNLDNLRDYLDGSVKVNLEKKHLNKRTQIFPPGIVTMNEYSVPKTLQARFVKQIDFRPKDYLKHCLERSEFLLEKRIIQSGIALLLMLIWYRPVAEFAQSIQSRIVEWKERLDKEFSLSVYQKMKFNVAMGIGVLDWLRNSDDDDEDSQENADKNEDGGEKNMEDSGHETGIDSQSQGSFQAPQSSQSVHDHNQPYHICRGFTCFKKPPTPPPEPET
structure (smiles),measurement,setting,value
CCn1c(N2CCN(Cc3ccc([N+](=O)[O-])cc3)CC2)nc2ccccc21,EC50,[1],0.133 µM (active)
O=C(c1ccc2c3c(cccc13)CC2)C1CCCN(CC2CC2)C1 (stereo unspecified),EC50,[1],0.841 µM (active)
CSc1cccc(NS(=O)(=O)c2ccc3c(c2)CCN3C(C)=O)c1,EC50,[2],2.42 µM (active)
same,IC50,[3],10.8 µM (active)
same,IC50,[4],> 20 µM (inactive)
same,IC50,[5],7.07 µM (active)
same,AC50,[6],1.49 µM (active)
same,AC50,[7],2.79 µM (active)
N#Cc1ccc(CN2CCN(C(=O)CNC(=O)Cc3cccc4ccccc34)CC2)cc1,AC50,[8],57.1 µM (active)
same,AC50,[9],10.3 µM (active)
COc1cccc(C2(c3cccc(OC)c3)CC2C(=O)Nc2ccc(F)cc2)c1 (stereo unspecified),IC50,[10],> 80 µM (inactive)
O=[N+]([O-])c1ccc(N2CCNCC2)c(Cl)c1,EC50,[1],0.596 µM (active)
COc1cc(C2Nc3ccc4ncccc4c3C3=C2C(=O)CC(C)(C)C3)cc(OC)c1O (stereo unspecified),IC50,[11],16.4 µM (not active)
CC1(C)CC2CC(C)(CN2C(=O)COC(=O)c2nnc(O)c3ccccc23)C1 (stereo unspecified),IC50,[12],10.7 µM (active)
CC(C)CC(NC(=O)CCl)c1ccccc1 (stereo unspecified),AC50,[13],320 µM (active)
same,EC50,[14],4.29 µM (active)
same,CC50,[15],> 40 µM (active)
COc1nnc(-c2ccc(N3CCCCC3)c(NC(C)=O)c2)c2ccccc12,IC50,[11],> 69.5 µM (not active)
CN(C)c1ccc(NC(=S)N2CCN(c3ncc(C(F)(F)F)cc3Cl)CC2)cc1,EC50,[1],2.66 µM (active)
Cc1ccc(C(=O)N/C(=C/C=C/c2ccccc2)C(=O)NCc2ccco2)cc1,IC50,[16],17.4 µM (active)
same,AC50,[17],10 µM (inconclusive)
Cc1ccc2c(c1)c(CC(=O)Nc1ccc(C)c(F)c1)c(C(=O)O)n2C,IC50,[16],12.6 µM (active)
COc1ccc2c(c1OC)C(=O)N1c3ccccc3C(=O)N(c3ccccc3)C21 (stereo unspecified),IC50,[12],> 79 µM (inactive)
C=CCc1c(C)nc(S)c(C#N)c1C,IC50,[10],> 80 µM (inactive)
Cc1nc(C)c(-c2ccc(SCC(=O)Nc3cccc(Cl)c3)nn2)s1,EC50,[2],> 20 µM (inactive)
same,IC50,[3],4.18 µM (active)
same,IC50,[4],> 20 µM (inactive)
same,IC50,[5],4.58 µM (active)
Cc1cc2cc3c(N)[nH]nc3nc2cc1C,IC50,[18],30.3 µM (active)
same,IC50,[11],> 69.5 µM (not active)
CCC(=O)N1CCc2cc(Br)cc(S(=O)(=O)NCCCN(CC)Cc3ccccc3)c21,EC50,[1],0.0133 µM (active)
CCOC(=O)c1cccc(C2=C(CNC(=O)c3cccnc3)[C@H]3CC[C@@H](C2)N3Cc2ccccc2)c1,IC50,[12],35.3 µM (inactive)
COc1ccc(NS(=O)(=O)c2ccc(N/N=C(\C)c3ccncc3)c([N+](=O)[O-])c2)cc1,EC50,[2],4.33 µM (active)
same,IC50,[3],3.9 µM (active)
same,IC50,[4],17.8 µM (active)
same,IC50,[5],2.11 µM (active)
COCCCNc1ccn2nc(-c3ccccc3)cc2n1,AC50,[19],7.19 µM (active)
same,AC50,[20],6.82 µM (active)
C[C@@H]1CN([C@@H](C)CO)C(=O)c2cccc(NS(=O)(=O)c3cccs3)c2O[C@@H]1CN(C)Cc1ccc(C(F)(F)F)cc1,AC50,[8],2.04 µM (active)
same,AC50,[9],16.7 µM (active)
Cc1ccc(C(=O)NC2CCCCC2)cc1S(=O)(=O)N1CCCC1,IC50,[16],1.26 µM (active)
O=C(CNc1ccc2c(c1)OCO2)N/N=C\c1cn(Cc2ccccc2)c2ccccc12,EC50,[21],9.09 µM (active)
same,EC50,[22],10.5 µM (active)
same,EC50,[23],6.5 µM (active)
same,IC50,[10],> 80 µM (inactive)
O=c1[nH]c2ccccc2c2ccccc12,IC50,[12],> 79 µM (inactive)
